In patent EP2118065B1, “Substituted 1H-benz[de]isoquinoline-1,3-diones” (priority 2007, dated 2008):
Like-named read-outs stand apart in the source and are kept apart here.

What was measured:
[1] = test system: U-937 lymphoma; test: MTT in vitro cytotoxicity; settings: read-out: IC50 value Lymphoma U-937
[2] = test system: HL-60 human leukemia; test: MTT in vitro cytotoxicity; settings: read-out: IC50 value Leukemia HL-60
[3] = test system: S-180; test: In vivo anticancer activity: increase in median survival time; set-up: species or system Swiss albino male mice
[4] = test system: SW-620; test: SRB in vitro cytotoxicity, human tumor cell line; type: cell-based; settings: 10^-5 M, Colon: SW-620, read-out: growth inhibition
Description: (§1) Compounds 3a-g were screened by sulforhodamine-B (SRB) semi-automated assay in a battery of cell lines. […] A., et. al. (1991); Feasibility high flux anticancer screen utilizing diverse panel of human tumor cell lines in culture. J Natl Cancer Inst. 83, 757-766]. Each compound was tested in triplicate sets of experiments at 10^-4 to 10^-6 M concentrations (Table 4).
(§2) A stock solution of 2 x 10^-2M was prepared in DMSO. The stock solutions were serially diluted to obtain working test solutions with complete growth medium (RPMI-1640 medium with 2mM glutamine, 100µg/ml streptomycin, pH 7.4, sterilized by filtration and supplemented with 10% fetal bovine serum and 100 units/ml penicillin before use) containing 50 µg/ml of gentamycin to obtain working test solutions. The working test solutions were not filtered/ sterilized but microbial contamination was controlled by addition of gentamycin in complete growth medium used for dilution of stock solutions to prepare working test solutions.
(§3) In vitro cytotoxicity against human cancer cell lines was determined^2 [Monk. A., et. al. (1991); Feasibility high flux anticancer screen utilizing diverse panel of human tumor cell lines in culture. J Natl Cancer Inst. 83, 757-766] using 96-well tissue culture plates. The cells were grown in tissue culture flasks in complete growth medium at 37°C in an atmosphere of 5% CO2 and 95% relative humidity in a carbon dioxide incubator. The cell suspension of required cell density (1-2 lakhs/ml) depending on the mass doubling time of cell lines was prepared in complete growth medium for determination of cytotoxicity. The aliquots of 100 µl of cell suspension were added to each well on a 96-well tissue culture plate. The blank wells contained complete medium in place of cell suspension. Simultaneously, control experiments with positive controls containing known anticancer agents were carried out. Cells were incubated for 24 hr.
(§4) The test materials (100 µl in each well) were added after 24-hours to the wells containing cell suspension and blank wells. The cells were allowed to grow in presence of test material by further incubating the plates for 48 hours. At the end of incubation period the cell growth was stopped by gently layering trichloroacetic acid (50% TCA, 50µl/well) on top of the medium in all the wells. The plates were incubated at 4°C for 1 hr. The plates were washed five times with distilled water to remove TCA, growth medium, low molecular weight metabolites, serum proteins etc. and air-dried.
(§5) The cell growth was measured^3 [Skehan, P, Storeng, R Scudiero, D, Monks, A, Mcmahon, J, Vistica, D, Warren, J.T., Bokesch, H., Kenney, S., Boyd, M.R. (1990). New colorimetric cytotoxicity assay for anti-cancer drug screening. J Natl Cancer Inst. 82: 1107-12] by staining with Sulphorhodamine B. Sulphorhodamine B (SRB, 0.4% in 1% acetic acid, 100 µl/well) was added to each well and plates were allowed to stand at room temperature for 30 minutes. The plates were washed with 1% acetic acid four times and then dried. Tris-HCl buffer (0.01 M, pH 10.5, 100 µl/well) was added to each well to solublise the dye. The plates were shaken gently for 10 minutes on a shaker and the optical density was recorded on ELISA reader at 540 nm. The cell growth was determined by subtracting mean OD value of respective blank from the mean OD value of experimental set. Percent growth in presence of test material was calculated considering the growth in absence of any test material as 100% and in turn percent growth inhibition in presence of test material was calculated. All the experiments were carried out in quadruplicate.

[5] = test system: IMR-32; test: SRB in vitro cytotoxicity, human tumor cell line; type: cell-based; settings: 10^-5 M, Neuroblastoma: IMR-32, read-out: growth inhibition
Description: as §1, §2, §3, §4, §5

[6] = test system: HCT-15; test: SRB in vitro cytotoxicity, human tumor cell line; type: cell-based; settings: 10^-5 M, Colon: HCT-15, read-out: growth inhibition
Description: as §1, §2, §3, §4, §5

[7] = test system: 502713; test: SRB in vitro cytotoxicity, human tumor cell line; type: cell-based; settings: 10^-5 M, Colon: 502713, read-out: growth inhibition
Description: as §1, §2, §3, §4, §5

[8] = test system: HL-60 cells; test: Annexin V-FITC/PI flow cytometric analysis of apoptosis; type: cell-based, human; settings: 24 h
Description: Induction of apoptosis in vitro by Compound 3b and 3f was further determined in HL-60 cells by flow cytometric assay using an Annexin V-FITC Apoptosis Detection Kit (BD Biosciences Pharmingen, San Diego, USA). Camptothecin was included in the study for comparison. Exponentially growing HL-60 cells in complete RPMI-1640 media (100 µl of 5×10^6) were plated in six well plates. 10 µl of each Compound in DMSO (5 and 10 µM concentrations) was added to the wells followed by the addition of required media (total volume 1ml). Plates were incubated at 37°C for 24 h. The cells were centrifuged at room temperature at 1500 rpm for 5 min. The pellet was washed twice with cold PBS and was re-suspended in the binding buffer (1X, 100µl) provided in the Kit. The cells were stained with Annexin V-FITC (5 µl) and Propidium Iodide [PI] (5µl) and incubated for 15 min in the dark at 25°C. Next 400µl of binding buffer was added to each tube and analyzed on a FACScan flow cytometer (Becton Dickinson, Mountainview, CA) using Cell Quest software. Cells stained with both Annexin-V-FITC and PI, containing DMSO as vehicle was used as stained control. Cells that were annexin^+ /Pr [Lower right quadrant (LR)] and annexin^+/PI^+ [Upper right quadrant (UR)] were considered as early apoptotic and late apoptotic respectively.

[9] = test system: S-180 cells; test: 3H-thymidine and 3H-uridine incorporation in vitro (DNA and RNA synthesis)
[10] = test system: MOLT-4 cells; test: Flow cytometric DNA cell cycle analysis (sub-G1 fraction); type: cell-based, Human; settings: camptothecin 1µM, 3 hrs
Description: Effect of DNA content by cell cycle phase distribution was assessed using MOLT-4 cells. […] The incubation period was 3 hrs in case of camptothecin and 24 hrs. in rest of the treatments. The cells were then washed twice with ice-cold PBS, harvested, fixed with ice-cold PBS in 70% ethanol, and stored at -20 °C for 30 min. After fixation, the cells were incubated with RNase A (0.1 mg/ml) at 37°C for 30 min, stained with propidium iodide (50 µg/ml) for 30 min on ice in dark, and then measured for DNA content using BD-LSR Flow cytometer (Becton Dickinson, USA) equipped with electronic doublet, discrimination capability using blue (488nm) excitation from argon laser. Data were collected in list mode on 10,000 events for FL2-A vs. FL2-W and analyzed using Mod Fit 2.0 software (Fig 4). […] The sub-G1 fractions for control and camptothecin were 0.64 (Fig. 4A) and 11.92 % (Fig. 4B).

[11] = test system: MOLT-4 cells; test: Annexin V-FITC/PI flow cytometric analysis of apoptosis; type: cell-based, Human; settings: 5µM, 6 hrs
Description: Events of apoptosis were analyzed using Annexin V-FITC Apoptosis Detection Kit (A 2214 Sigma Aldrich, USA). Human leukemia Cells (MOLT-4, 1x10^6 cells/ml) in 6-well plate were treated with Compound 3f (3 and 5µg/ml), camptothecin (5µM) and incubated for 6 hrs. After incubation, the cells were centrifuged, rinsed with PBS twice and re-suspended in binding buffer (10 mM HEPES/NaOH, pH 7.5 containing 0.14M NaCl and 25 mM CaCl2). An aliquot (500 µl) of suspension was stained with of Annexin V-FITC (5 µl) and Propidium Iodide (10 µl). The cells were stored for 10 minutes at room temperature in the dark and then analyzed by BD-LSR flow cytometer (Becton Dickinson, USA) at two wavelengths to measure fluorescence for of Annexin V & PI binding at 515 and 639 nm.

[12] = S-180, 30 mg/kg i.p., 7 injns., days 1-7
[13] = S-180, 60 mg/kg i.p., 7 injns., days 1-7
[14] = S-180, 60 mg/kg i.p., 7 injns., days 5-11
[15] = S-180, 20 mg/kg i.p., 7 injns., days 1-7
[16] = S-180, 6 mg/kg i.p., 7 injns., days 1-7
[17] = S-180, 0.5 mg/kg i.p., 7 injns., days 1-7
[18] = S-180, 1 mg/kg i.p., 7 injns., days 1-7

Structure (SMILES): O=NN(CCCl)C(=O)NCCCl [BCNU, Bis (2-chloroethyl-nitrosourea)]
- IC50 ([1]; MTT, 96 h): 12.3 µM
- IC50 ([2]; MTT, 96 h): 30.5 µM

Structure (SMILES): N.N.[Cl][Pt][Cl] [Cis-Platinum]
- IC50 ([1]; MTT, 96 h): 3.2 µM
- IC50 ([2]; MTT, 96 h): 7 µM

Structure (SMILES): O=C1c2cccc3c([N+](=O)[O-])ccc(c23)C(=O)N1CCCl [Compound 3b, 6-Nitro-2-[2-(Chloroethyl)]-1H-benz[de]isoquinoline-1,3-dione]
- MST ([3]; S-180, 40 mg/kg i.p., 7 injns., days 1-7): 20.5 days
- MST ([3]; S-180, 80 mg/kg i.p., 7 injns., days 1-7): 23.0 days
- inhibition at 10 µM [4]: > 50%
- inhibition at 10 µM [5]: > 50%
- inhibition at 10 µM [6]: > 50%
- inhibition at 10 µM [7]: > 50%
- IC50 ([1]; Homo sapiens, U-937, 96 h): 0.66 µM
- early apoptotic cells (Annexin V^+/PI^-), LR ([8]; 5 µM): 4.5%
- late apoptotic cells (Annexin V^+/PI^+), UR ([8]; 5 µM): 5.2%
- total apoptotic cells (apoptotic cell population) ([8]; 5 µM): 9.7%
- early apoptotic cells (Annexin V^+/PI^-), LR ([8]; 10 µM): 15.3%
- late apoptotic cells (Annexin V^+/PI^+), UR ([8]; 10 µM): 33.5%
- total apoptotic cells (apoptotic cell population) ([8]; 10 µM): 48.8%
- IC50 ([2]; Homo sapiens, HL-60, 96 h): 0.8 µM

Structure (SMILES): O=C1c2cccc3cc([N+](=O)[O-])cc(c23)C(=O)N1CCCCl [Compound 3g, 5-Nitro-2-[3-(Chloropropyl)]-1H-benz[de]isoquinoline-1,3-dione]
- MST [3, 12]: 25.5 days
- T/C % [3, 12]: 106%
- MST [3, 13]: 24.0 days
- T/C % [3, 13]: 129%
- MST [3, 14]: 25.0 days
- T/C % [3, 14]: 104%

Structure (SMILES): O=c1[nH]cc(F)c(=O)[nH]1 [Compound 5-FU, 5-fluorouracil, reference compound]
- MST [3, 15]: 53.5 days
- Survivors > 60 days [3, 15]: 3
- T/C % [3, 15]: 233%
- T/C % ([3]; mouse, in vivo): 233
- IC50 ([1]; Homo sapiens, U-937, 96 h): 4.7 µM
- IC50 ([2]; Homo sapiens, HL-60, 96 h): 266 µM

Structure (SMILES): O=P1(N(CCCl)CCCl)NCCCO1 (stereo not shown) [Cyclophosphamide, reference compound]
- MST [3, 16]: 33.0 days
- T/C % [3, 16]: 143%

Structure (SMILES): NC(=O)NO [Hydroxyurea]
- IC50 ([1]; Homo sapiens, U-937, 96 h): 115 µM
- IC50 ([2]; Homo sapiens, HL-60, 96 h): 204 µM

Structure (SMILES): CN(C)CCN1C(=O)c2cccc3cc([N+](=O)[O-])cc(c23)C1=O [Mitonafide, reference compound]
- MST [3, 17]: 36.5 days
- Survivors > 60 days [3, 17]: 1
- T/C % [3, 17]: 187%
- MST [3, 18]: 25.0 days
- T/C % [3, 18]: 128%
- inhibition at 8 µM ([9]; Mus musculus, S-180, read-out: DNA synthesis inhibition (3H-thymidine uptake)): 93%
- RNA synthesis inhibition (3H-uridine uptake) ([9]; S-180 cells, 8 µM, 1 hr incubation, with respect to control): 92%

Structure (SMILES): CC[C@@]1(O)C(=O)OCc2c1cc1n(c2=O)Cc2cc3ccccc3nc2-1 [camptothecin, reference compound]
- sub-G1 fraction [10]: 11.92%
- total apoptotic cells [11]: 8.83%
- early apoptotic cells (Annexin V^+/PI^-), LR ([8]; 5 µM): 7.79%
- late apoptotic cells (Annexin V^+/PI^+), UR ([8]; 5 µM): 5.46%
- total apoptotic cells (apoptotic cell population) ([8]; 5 µM): 13.3%
- early apoptotic cells (Annexin V^+/PI^-), LR ([8]; 10 µM): 10.52%
- late apoptotic cells (Annexin V^+/PI^+), UR ([8]; 10 µM): 5.30%
- total apoptotic cells (apoptotic cell population) ([8]; 10 µM): 15.8%
